Results: ChEMBL document CHEMBL1201862, “PubChem BioAssay data set” (2004)
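Growth conditions: 96-well plates. Treatment: test compound, 48 hours, 5 concentrations. Analysis: linear interpolation between bracketing concentrations; unreached endpoints set to highest concentration. Here, GI50 denotes the concentration required for 50% inhibition of growth.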 The source made the active and inactive calls. No stated cut-off is given here; in the data, active = GI50 up to about 1.1 µM and inactive = higher.

Columns and labels:
Assay in all cases: NCI-60 cell line screen, 48 h
SN12C = tested on: SN12C
U-251 = tested on: U-251
SW-620 = tested on: SW-620
SK-MEL-5 = tested on: SK-MEL-5
M14 = tested on: M14
K562 = tested on: K562
SF-539 = tested on: SF-539
SR = tested on: SR
PC-3 = tested on: PC-3
HCT-116 = tested on: HCT-116
SNB-19 = tested on: SNB-19
CAKI-1 = tested on: CAKI-1
HCC 2998 = tested on: HCC 2998
HOP-92 = tested on: HOP-92
RPMI-8226 = tested on: RPMI-8226
SF-268 = tested on: SF-268
SNB-75 = tested on: SNB-75
UACC-62 = tested on: UACC-62
DU-145 = tested on: DU-145
SF-295 = tested on: SF-295

Measured: GI50

CCOP(=O)(OCC)/C(C#N)=C\c1cccc2ccccc12
inactive: SN12C 82.4 µM | U-251 > 67.5 µM | SW-620 68.5 µM | SK-MEL-5 39.5 µM | M14 80 µM | K562 31 µM | SF-539 > 56 µM | SR 31.8 µM | PC-3 64 µM | HCT-116 46 µM | SNB-19 > 57.1 µM | CAKI-1 74.3 µM | HCC 2998 > 58.5 µM | HOP-92 23 µM | RPMI-8226 23 µM | SF-268 21.4 µM | SNB-75 22.4 µM | UACC-62 35.5 µM | DU-145 57.9 µM | SF-295 60.1 µM

CC(C)(C)OC(=O)N1CCC2(CC1)C(=O)NCN2c1ccccc1
inactive: SN12C > 100 µM | U-251 > 100 µM | SW-620 > 100 µM | SK-MEL-5 > 100 µM | M14 > 100 µM | K562 77.8 µM | SF-539 > 100 µM | SR > 100 µM | PC-3 > 100 µM | HCT-116 > 100 µM | SNB-19 > 100 µM | CAKI-1 > 100 µM | HCC 2998 > 100 µM | HOP-92 > 100 µM | RPMI-8226 > 100 µM | SF-268 > 100 µM | SNB-75 > 100 µM | UACC-62 > 100 µM | DU-145 > 100 µM | SF-295 > 100 µM

COc1cc2c(cc1OCc1ccccc1)NC(=O)[C@@H]1CCCN1C2=O
inactive: SN12C > 100 µM | U-251 > 100 µM | SW-620 > 100 µM | SK-MEL-5 > 100 µM | M14 > 100 µM | K562 > 100 µM | SF-539 > 100 µM | SR > 100 µM | PC-3 > 100 µM | HCT-116 > 100 µM | SNB-19 > 100 µM | CAKI-1 > 100 µM | HCC 2998 > 100 µM | HOP-92 > 100 µM | RPMI-8226 > 100 µM | SF-268 > 100 µM | SNB-75 > 100 µM | UACC-62 > 100 µM | DU-145 > 100 µM | SF-295 > 100 µM

CC1=C(C)SC(=C2Sc3[n-]c(=O)[nH]c(=O)c3S2)S1.CCCC[N+](CCCC)(CCCC)CCCC
inactive: SN12C > 100 µM | U-251 > 100 µM | SW-620 > 100 µM | SK-MEL-5 28.5 µM | M14 31.3 µM | K562 49.4 µM | SF-539 44.5 µM | SR 35.9 µM | PC-3 > 100 µM | HCT-116 > 100 µM | SNB-19 73.1 µM | CAKI-1 > 100 µM | HCC 2998 > 100 µM | HOP-92 > 100 µM | RPMI-8226 > 100 µM | SF-268 > 100 µM | SNB-75 > 100 µM | UACC-62 27.2 µM | DU-145 > 100 µM | SF-295 > 100 µM

Nc1nc(SCc2ccccc2[N+](=O)[O-])c2[nH]cnc2n1
inactive: SN12C > 57.1 µM | U-251 > 61.9 µM | SW-620 > 73.6 µM | SK-MEL-5 18.9 µM | M14 > 53.3 µM | K562 > 55.2 µM | SF-539 > 100 µM | SR > 51.6 µM | PC-3 31.5 µM | HCT-116 > 60.1 µM | SNB-19 > 83.2 µM | CAKI-1 38.7 µM | HCC 2998 > 41.5 µM | HOP-92 2.23 µM | RPMI-8226 > 47.2 µM | SF-268 > 35.7 µM | SNB-75 > 42.5 µM | UACC-62 37.3 µM | DU-145 44.7 µM | SF-295 > 67.6 µM
